Assay results as given in publication PMC8835475, “Salviolone from Salvia miltiorrhiza Roots Impairs Cell Cycle Progression, Colony Formation, and Metalloproteinase-2 Activity in A375 Melanoma Cells: Involvement of P21(Cip1/Waf1) Expression and STAT3 Phosphorylation” (International Journal of Molecular Sciences, 2022).

How the values were obtained:
[1] = system: A375 melanoma cell line; experiment: SRB cell viability assay in A375 cells; assay type: cell-based, human; conditions: for inhibition of melanoma cell viability: A375, 20 µM; for inhibition of melanoma cell viability / EC50: 72 h; for viability reduction in melanoma cells / EC50: A375, SRB; for viability reduction in melanoma cells: 40–60 µM; for EC50: Homo sapiens, A-375, read-out: half maximal effective concentration (EC50) able to reduce cell viability
Description: (§1) In preliminary experiments, the evaluation of cell viability at different time after compound administration was carried out with sulforhodamine B (SRB) assay. Indeed, after 24-, 48-, and 72-h treatment, an evident time dependence in the inhibition of cell growth was registered (data not shown). Thus, to evaluate A375 and MeWo cell viability, we decided to perform further SRB experiments with each compound only after 72 h.
(§2) Human MeWo (HTB-65) and A375 (CRL-1619) melanoma cell lines as well as the normal human epidermal melanocyte (NHEM) (PCS-200-013) cell line (ATCC, Manassas, VA, USA) were cultured at 37 °C under 5% CO2 in a humidified atmosphere. Roswell Park Memorial Institute 1640 medium (RPMI, Gibco, Ref.21875, Thermo Scientific, Waltham, MA, USA) was used to culture MeWo cells, while Dulbecco’s Modified Eagle Medium (DMEM, Gibco, Ref. 61965, Thermo Scientific, Waltham, MA, USA) was used for A375 and NHEM cell lines. The culture media were supplemented with 10% fetal bovine serum (FBS, Gibco, Thermo Scientific, Waltham, MA, USA) plus 1% Antibiotic Antimycotic Solution (Gibco, Thermo Scientific). The MEK1 inhibitor U0126 (CAY-70970) and the PI3K inhibitor LY294002 (CAY-70920) were provided by Cayman Chemical, Ann Arbor, MI, USA.
(§3) Melanoma MeWo and A375 cells or NHEM were seeded in 96-well plates (5.0 × 10^3 cells/well for MeWo cells and 2.9 × 10^3 cells/well for A375 or NHEM). After 24-h culture, the cells were treated with different concentrations of compounds 1–7. After 72-h treatment, the cells were fixed by adding 25 µL/well of 50% (w/v) TCA directly into the culture medium. The plates were incubated at 4 °C for 1 h, washed four times with ddH2O, and dried at RT. Staining was performed by adding 50 µL/well of 0.04% (w/v) sulforhodamine B (SRB) sodium salt solution (Sigma-Aldrich, Milan, Italy). After 1-h incubation at RT, the plates were rinsed with 1% HAc and air-dried. SRB was solubilized in a 10 mM Tris-base solution pH 10.5 and Abs492 measured in the plate reader TECAN NanoQuant Infinite M200 Pro (Tecan Group Ltd., Männedorf, Switzerland). Six replicates for each condition/data point were performed.

[2] = system: MeWo melanoma cell line; experiment: SRB cell viability assay in MeWo cells; assay type: cell-based, human; conditions: for inhibition of melanoma cell viability: 20 µM; for inhibition of melanoma cell viability / EC50: 72 h; for EC50: Homo sapiens, read-out: EC50 useful in diminishing cell viability; for EC50 / viability reduction in melanoma cells: SRB; for viability reduction in melanoma cells: 40–60 µM
Description: as §1, §2, §3

[3] = system: normal human epithelial melanocyte (NHEM) cell line; experiment: SRB cell viability assay in NHEM cells; assay type: cell-based; conditions: for effect on NHEM viability: 10–20 µM; for reduction of NHEM viability: 40–60 µM
Description: as §2, §3

[4] = system: cyclin A2; experiment: Immunoblot of cyclin A2 in A375 cells; assay type: cell-based, human; conditions: A375, 20 µM, 48 or 72 h
Description: (§4) A375 cells were seeded in 6 cm Petri dishes (190 300 cell/dish) and treated with different compounds at 10 or 20 μM. After 48- or 72-h treatment, the cells were scraped using warm 1× sample buffer (2% SDS, 10% glycerol, 50 mM Tris-HCl, 1.75% β-mercaptoethanol, and bromophenol blue) and boiled at 99 °C for 10 min. Total protein extracts were kept at −80 °C until use.
(§5) Protein extracts were analyzed with a 7.5 or 10% polyacrylamide SDS-PAGE and transferred to a polyvinylidene difluoride membrane (PVDF, Thermo Fisher Scientific, Waltham, MA, USA). The membranes were blocked at RT for 1 h with TBST buffer (10 mM Tris-HCl pH 7.5, 100 mM NaCl, 0.1% Tween20) containing 4% Milk (Formulat). […] Immuno-detection was carried out with an ECL kit (GE-Healthcare, Little Chalfont, UK), and the chemiluminescence signals were detected with ChemiDoc (Bio-Rad, Hercules, CA, USA).

[5] = system: P21(Cip1/Waf1); experiment: Immunoblot of P21 in A375 cells; assay type: cell-based, human; conditions: A375, 20 µM, 48 and 72 h
Description: as §4, §5

[6] = system: P53; experiment: Immunoblot of P53 in A375 cells; assay type: cell-based, human; conditions: A375, 20 µM, 48 and 72 h
Description: as §4, §5

[7] = system: Tyr705-STAT3 phosphorylation; experiment: Immunoblot of p-Tyr705-STAT3 in A375 cells; assay type: cell-based, human; conditions: A375, 20 µM; for STAT3 activity (tyrosine and serine phosphorylation): 48 h; for Tyr705-STAT3 phosphorylation: 72 h, vs untreated cells
Description: as §4
Protein extracts were analyzed with a 7.5 or 10% polyacrylamide SDS-PAGE and transferred to a polyvinylidene difluoride membrane (PVDF, Thermo Fisher Scientific, Waltham, MA, USA). The membranes were blocked at RT for 1 h with TBST buffer (10 mM Tris-HCl pH 7.5, 100 mM NaCl, 0.1% Tween20) containing 4% Milk (Formulat). Then, they were incubated on a shaker, overnight (ON) at 4 °C, with 5% BSA solution containing primary antibodies against p-Tyr705-STAT3 (#9145, 1:1000), pRb (#8516, 1:2000), pERK (#4370, 1:1000), pAkt (#4060, 1:2000), pSer15-P53 (#9286, 1:2000) (Cell Signaling Technology, Danvers, […], USA), Akt (GTX121937, 1:3000), ERK (GTX134452, 1:6000), Cyclin A2 (GTX-103042, 1:3000), p-Thr160Cdk2 (GTX-133862, 1:3000), p21 (GTX-629543, 1:3000) (Genetex, Alton Pkwj Irvine, CA, USA), p53 (Sc-263, 1:1000), STAT3 (Sc-482, 1:1000), and p-Ser727-STAT3 (Sc-136193, 1:1000) (Santa Cruz Biotechnology, Dallas, TX, USA). The membranes were washed three times with TBST buffer for 30 min and then incubated for 1 h with a horseradish-peroxidase-conjugated secondary antibody (anti-rabbit 1:6000, Genetex), (anti-mouse, 1:4000, Cell Signaling Technology, Danvers, […], USA). They were washed another three times for 30 min with TBST buffer. All protein extracts were normalized with a β-actin protein antibody (GTX-124214, 1:10,000; Genetex, Alton Pkwj Irvine, CA, USA). Immuno-detection was carried out with an ECL kit (GE-Healthcare, Little Chalfont, UK), and the chemiluminescence signals were detected with ChemiDoc (Bio-Rad, Hercules, CA, USA).

[8] = system: p-Ser727-STAT3; experiment: Immunoblot of p-Ser727-STAT3 in A375 cells; assay type: cell-based, human; conditions: A375, 20 µM, 72 h
Description: as §4, §5

[9] = system: Akt; experiment: Immunoblot of total Akt in A375 cells; assay type: cell-based, human; conditions: A375, 20 µM, 48 and 72 h
Description: as §4, §5

[10] = system: A375 cells; experiment: Wound closure cell migration assay; assay type: cell-based, human; conditions: A375, 20 µM, vs controls
Description: The wound healing assay is widely used to measure cell migration. The method is based on quantifying the rate at which cells can close an artificial scratch created in a confluent cell monolayer. A375 cells were seeded in 12-well plates (120 × 10^3 cells/well) and, once confluence was reached, the monolayer was scratched with a sterile 10 μL pipette tip. […] Then, either cryptotanshinone (4) or salviolone (7) at 10 or 20 µM was added to the culture. After 0-, 8-, 24- and 30-h culture, images were captured with Zeiss Axio Vert. (Zeiss, Milan, Italy) to measure the delay to repopulate the scratch in comparison with the non-treated control sample.

[11] = system: ERK1/2; experiment: Immunoblot of total ERK1/2 in A375 cells; assay type: cell-based, human; conditions: A375, 20 µM, 72 h
Description: as §4, §5

C[C@H]1COC2=C1C(=O)C(=O)c1c2ccc2c1CCCC2(C)C [Compound 4, cryptotanshinone]
inhibition of melanoma cell viability [1]: about 50%
viability reduction in melanoma cells [1]: 70–80%
EC50 [1]: ~14 µM
inhibition of melanoma cell viability [2]: about 50%
EC50 [2]: 17 µM
viability reduction in melanoma cells [2]: 70–80%
effect on NHEM viability [3]: did not affect
reduction of NHEM viability [3]: 20%
cyclin A2 expression level [4]: slightly reduced
P21 expression level [5]: significantly increased
P53 protein expression [6]: significant increase
STAT3 activity (tyrosine and serine phosphorylation) [7]: did not significantly change
Tyr705-STAT3 phosphorylation [7]: significant reduction
p-Ser727-STAT3 level [8]: increase
expression level of Akt total protein [9]: not changed
A375 cell migration rate / wound healing closure [10]: slow down

Cc1cc2ccc3c(c2cc(O)c1=O)CCCC3(C)C [Compound 7, salviolone]
inhibition of melanoma cell viability [1]: about 50%
viability reduction in melanoma cells [1]: 70–80%
EC50 [1]: ~17 µM
inhibition of melanoma cell viability [2]: about 50%
EC50 [2]: 22 µM
viability reduction in melanoma cells [2]: 70–80%
effect on NHEM viability [3]: did not affect
reduction of NHEM viability [3]: 20%
cyclin A2 expression level [4]: strongly reduced
P21 expression level [5]: strongly increased
P53 protein expression [6]: significant increase
STAT3 activity (tyrosine and serine phosphorylation) [7]: did not significantly change
Tyr705-STAT3 phosphorylation [7]: significant reduction
p-Ser727-STAT3 level [8]: increase
total protein amount of ERK1/2 [11]: increased
expression level of Akt total protein [9]: not changed
A375 cell migration rate / wound healing closure [10]: did not significantly delay
